From paper PMC3718762, “Differential Disruption of EWS-FLI1 Binding by DNA-Binding Agents” (PLoS ONE, 2013) come the findings set out here.

One assay concerns the target T1, p53 (Homo sapiens, UniProt P04637).
T1 construct: made in house; host or cells: bacteria (pGex-6P-1-p53); plasmid was a gift from Dr. Guangchao Sui
Briefly: AlphaScreen proximity assay (counterscreen), binding of recombinant p53 to cognate DNA oligo. From the text: An AlphaScreen assay for binding of recombinant EWS-FLI1 to DNA was previously described. Briefly, recombinant EWS-FLI1 and p53 were synthesized in bacteria transformed with pGex-6P-1-EWS-FLI1 or pGex-6P-1-p53, and bound to AlphaScreen acceptor beads. A biotinylated oligonucleotide containing two copies of the EWS-FLI1 binding motif or p53 binding motifs was bound to AlphaScreen donor beads. For EWS-FLI1, the oligo sequence was: […]. The p53 binding oligo sequence was: […]. This assay was used to screen 5,200 compounds, as previously described. IC50 values were calculated with the GraphPad Prism software package.
We developed a homogeneous AlphaScreen assay to assess the binding of recombinant EWS-FLI1 to DNA [18]. A parallel assay assessing binding of p53 to DNA was used as a counterscreen. Briefly, in these proximity assays, recombinant GST-EWS-FLI1 or GST-p53 was bound to glutathione-conjugated AlphaScreen acceptor beads, and a synthetic biotinylated oligonucleotide (oligo) containing tandem EWS-FLI1 or p53 binding sites was bound to streptavidin-conjugated AlphaScreen donor beads. Binding of GST-EWS-FLI1 or GST-p53 to the cognate oligo allows singlet oxygen transfer from donor to acceptor beads when excited at 680 nm, with resulting light emission between 520–620 nm.

The subject of another assay is NR0B1 promoter. Briefly: NR0B1-Luc firefly luciferase reporter assay in A673 cells. It is filed as cell-based, human. Particulars: Homo sapiens, A673, 16 h, read-out: IC50 for inhibition of NR0B1 activity. The text has this: The NR0B1 promoter was amplified from human genomic DNA using the 5′ primer- […] and 3′ primer - […]. NR0B1 promoter amplicon was cloned into the NheI and HindIII sites in the pGL.3Basic vector. The 5′ primer-[…] was used to amplify a truncated NR0B1 promoter in which the entire EWS-FLI1 binding region (GGAA repeats) was deleted to construct pGL.3b-NR0B1del. All constructs were confirmed by sequencing. All other plasmids were previously described.
Ewing sarcoma A673 cells at 50% confluence in 100 mm dishes were transfected with both 5.8 µg of pGL.3b-NR0B1 and 0.2 µg of pGL.3b-Ubc-RL reporter plasmids as above. Eight hours post-transfection, cells were trypsinized and 600 ul (2×10^5) of cells were added to each well of 24 well plates. 5 µl of different concentration of compounds or DMSO control were added to each well. Each treatment was performed in triplicate. Cells were incubated for 16 hours, then cells were lysed in 100 µl of lysis buffer and 10 µl of cell lysate was used for the dual luciferase assay. Renilla luciferase activity was used as an internal control for normalization of nonspecific transcriptional inhibition or cytotoxic effects. Experiments were repeated three times. IC50 values were calculated using Prism (Graphpad).
To determine the effect of compounds on EWS-FLI1 activity in cells, we used a reporter assay comprised of the NR0B1 promoter, a prototypical EWS-FLI1-regulated gene, driving expression of firefly luciferase. Renilla luciferase driven by the Ubiquitin C promoter (UbC-RL) was used as an internal control. Confirming prior studies, the NR0B1 promoter was verified to be highly responsive to EWS-FLI1, whereas the UbC promoter activity was not subject to regulation by EWS-FLI1 (Figure S1).

The target of assay [1] is T2, EWS-FLI1 binding to the NR0B1 promoter (Homo sapiens, UniProt Q01543+Q01844).
T2 construct: EWS (EWSR1, Q01844) N-terminal portion, fusion partner; endogenous in cells; host or cells: A673 Ewing sarcoma cells
T2 sequence (Q01844+Q01543 with tags, fused parts or gaps): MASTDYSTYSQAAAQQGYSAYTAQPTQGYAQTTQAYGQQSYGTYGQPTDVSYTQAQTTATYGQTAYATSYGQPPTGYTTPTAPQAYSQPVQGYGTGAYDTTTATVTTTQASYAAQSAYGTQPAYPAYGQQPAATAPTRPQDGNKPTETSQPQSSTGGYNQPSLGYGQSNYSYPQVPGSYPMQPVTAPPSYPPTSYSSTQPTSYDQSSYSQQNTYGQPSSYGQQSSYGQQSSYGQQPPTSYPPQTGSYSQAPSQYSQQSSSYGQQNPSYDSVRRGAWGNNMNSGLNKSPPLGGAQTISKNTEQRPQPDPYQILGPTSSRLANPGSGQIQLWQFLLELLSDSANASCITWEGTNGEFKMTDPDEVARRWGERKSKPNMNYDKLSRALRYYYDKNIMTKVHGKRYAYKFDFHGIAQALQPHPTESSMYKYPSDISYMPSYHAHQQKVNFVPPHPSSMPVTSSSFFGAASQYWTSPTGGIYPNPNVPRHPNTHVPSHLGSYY
Briefly: ChIP-qPCR, EWS-FLI1 binding to NR0B1 promoter in A673 cells. Particulars: 5 nM, 4 hrs, anti-FLI1 ChIP, DMSO 31-fold, p = 0.0018. In kind it is cell-based. The protocol:
ChIP-qPCR was performed as previously described. Briefly, cells were treated with compounds for 4 hrs, then crosslinked, lysed, and chromatin fragmented. After ChIP, quantitative PCR was used to quantify NR0B1, p53, and RPS26 loci, and fold enrichment was determined by the formula: Fold enrichment = 2χ(Input Ct-ChIP Ct)/2χ(Input Ct-IgG Ct).
We used chromatin immunoprecipitation coupled with quantitative PCR (ChIP-qPCR) to assess effects of actinomycin D on EWS-FLI1 binding to chromatin in cells. A673 cells were treated with either actinomycin D at 5 nM, or vehicle. After crosslinking, chromatin was sheared and EWS-FLI1-DNA complexes were immunoprecipitated using an anti-FLI1 antibody. We used primers flanking the EWS-FLI1-binding site in the promoter of the NR0B1 gene to quantify binding of EWS-FLI1. We used RPS26 and TP53 as control loci since neither are bound by EWS-FLI [15] and we have shown that RPS26 and TP53 transcript levels were unaffected by actinomycin D treatment (Figure 2F). Without actinomycin D treatment, binding of EWS-FLI1 to the NR0B1 promoter was enriched 31-fold by comparison to IgG controls (Figure 4A, DMSO). Treatment of cells with actinomycin D reduced binding of EWS-FLI1 to the NR0B1 promoter to 4-fold (p = 0.0018; Figure 4A).

Starred links: 1 amine or outer side, 2 acyl side, 3 side chain; linkers in the order of their positions; H or OH if unused. Positions of bridges follow the written chain, without caps; N, C: chain ends. Non-standard residues stand in square brackets, D forms with d. Residues, ends and D or L forms follow the SMILES beside them. Chains are numbered I, II in the order given. Actinocin(9to1) = Cc1c2oc3c(C)ccc(C(=O)[*:1])c3nc-2c(C(=O)[*:2])c(N)c1=O; NMeV = CN[C@H](C(=O)O)C(C)C; Sar = CNCC(=O)O A value given as a limit tells only on which side of the number the result lay.

T1 sequence (P04637 whole entry, species assumed): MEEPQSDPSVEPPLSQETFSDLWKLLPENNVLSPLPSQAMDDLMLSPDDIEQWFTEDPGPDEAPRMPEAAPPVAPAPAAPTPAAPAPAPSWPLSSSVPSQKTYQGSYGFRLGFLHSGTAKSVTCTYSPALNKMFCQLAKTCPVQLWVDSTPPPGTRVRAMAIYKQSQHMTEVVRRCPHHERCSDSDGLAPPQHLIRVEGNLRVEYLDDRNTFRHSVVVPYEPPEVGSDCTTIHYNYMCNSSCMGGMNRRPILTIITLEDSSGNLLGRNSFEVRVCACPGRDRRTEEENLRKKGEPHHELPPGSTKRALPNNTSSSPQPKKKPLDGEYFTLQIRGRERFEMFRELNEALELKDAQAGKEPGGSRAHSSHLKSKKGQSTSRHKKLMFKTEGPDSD

Consider `Cc1c2oc3c(C)ccc(C(=O)N[C@@H]4C(=O)N[C@H](C(C)C)C(=O)N5CCC[C@H]5C(=O)N(C)CC(=O)N(C)[C@@H](C(C)C)C(=O)O[C@@H]4C)c3nc-2c(C(=O)N[C@@H]2C(=O)N[C@H](C(C)C)C(=O)N3CCC[C@H]3C(=O)N(C)CC(=O)N(C)[C@@H](C(C)C)C(=O)O[C@@H]2C)c(N)c1=O` [Actinomycin D] (I: T[dV]P[Sar][NMeV] / II: T[dV]P[Sar][NMeV]; ester I:1-I:C, II:1-II:C; linker I:N-II:N via Actinocin(9to1)), for which the figures for the IC50 on p53 and with NR0B1 promoter were above 10000 nM and 2.8 nM, respectively. Further, the “Binding of EWS-FLI1 to the NR0B1 promoter, fold enrichment over IgG control” value in assay [1] is 4 fold.
